Bridge positions count the residues as written; N and C are the ends. Square brackets hold non-standard residues; d marks the D form. Peptide text beside a SMILES is read from it. Orn = NCCC[C@H](N)C(=O)O
Experiments:
[1] = target: T1, mTEAD4 (Mus musculus, UniProt Q62296); experiment: SPR binding to immobilised mTEAD4; conditions: mTEAD4 amine-coupled on CM5, multi-cycle, steady-state fit 1:1 model, 10 mM HEPES 150 mM NaCl 0.05% Tween-20 pH 7.4, 0.3% DMSO, 20 °C, Fig. 1 values n = 1 replicate
T1 construct: Mouse TEAD4(210–427) cDNA fused with a 6x His-tag and a 3C protease cleavage site; 6x His-tag; 3C protease cleavage site; made in house; host or cells: E. coli BL21 DE3 RIL(K+)
T1 sequence (Q62296 210-427): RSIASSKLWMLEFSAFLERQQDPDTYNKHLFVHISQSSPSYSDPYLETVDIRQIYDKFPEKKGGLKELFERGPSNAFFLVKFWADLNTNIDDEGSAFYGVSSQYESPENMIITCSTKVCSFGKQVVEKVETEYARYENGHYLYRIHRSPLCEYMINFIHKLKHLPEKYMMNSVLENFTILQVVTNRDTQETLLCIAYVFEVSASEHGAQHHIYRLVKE
Procedure: (§1) Sensor chips Series S CM5 (Research grade) were obtained from GE Healthcare. Prior to use, the sensor chips were equilibrated at room temperature for 15 min to prevent water condensation on the detector side of the sensor chip surface. A running buffer was prepared composed of 10 mM HEPES, 150 mM NaCl, and 0.05% (w/v) Tween-20, pH 7.4, and the system was equilibrated at 20 °C using a flow rate of 30 µL min^−1 after docking of the sensor chip. Ligand binding experiments have been performed applying the concept of multi-cycle kinetics. A contact time of 45 s was selected, followed by a 6-min dissociation phase to allow for complete dissociation of the analyte prior to the next cycle. […] Typically, seven concentrations of the analytes have been examined applying a threefold dilution pattern with 30 µM as top concentration. For the analysis, five running buffer blanks were injected to equilibrate the instrument. […] The carboxyl-dextran surface was activated for 7 min with 0.05 M NHS and 0.2 M EDC, followed by an injection of the proteins in 10 mM MES pH 6.4 at a concentration of 30–50 µg mL^−1. […] This was followed by a deactivation of the residual esters by injecting a solution of 0.5 M ethanolamine pH 8.0 for 7 min before engaging in ligand binding experiments. Reference surfaces were prepared accordingly, omitting the injection of protein over the activated reference surface.

[2] = target: T1, mTEAD4; experiment: Competition fluorescence polarization with mTEAD4 (alanine scan); format: binding; conditions: Ac-peptide vs FITC-labelled tracer peptide 10 nM, mTEAD4 400 nM, 1 h
Procedure: Competition FP: N-terminally acetylated peptides were diluted 1:1 in a 384-well plate (5 μL, 75 μM−9 pM). Ten microlitres of a mixture (1:1) of mTEAD4 and FITC-labelled peptide was added (final concentrations: acetylated peptides = 50 μM−6 pM; mTEAD4 protein = 400 nM; FITC-labelled tracer peptide = 10 nM). After 1 h, FP was measured (λ(ex) = […]). IC50 was determined from the binding curve with GraphPad from Prism.

[3] = target: T2, GST-hTEAD1 (Homo sapiens, UniProt P28347); experiment: SPR binding to immobilised GST-hTEAD1; conditions: GST-hTEAD1 amine-coupled on CM5, multi-cycle, steady-state fit 1:1 model, 10 mM HEPES 150 mM NaCl 0.05% Tween-20 pH 7.4, 0.3% DMSO, 20 °C, Fig. 1 values n = 1 replicate
T2 construct: CDNA of hTEAD1(209–426) fused with an N-terminal GST tag; made in house; host or cells: Escherichia coli BL21 DE3 RIL(K+)
T2 sequence (P28347 209-426): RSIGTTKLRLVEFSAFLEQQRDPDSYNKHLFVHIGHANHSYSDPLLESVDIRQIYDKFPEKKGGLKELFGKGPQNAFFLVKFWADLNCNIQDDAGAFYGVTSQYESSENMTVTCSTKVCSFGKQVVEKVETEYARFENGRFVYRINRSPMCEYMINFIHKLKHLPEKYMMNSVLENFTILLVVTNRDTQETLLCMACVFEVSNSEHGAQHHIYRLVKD
Procedure: as §1

[4] = tested on: primary juvenile (P5–P6) rat cardiomyocytes; experiment: Cell cycle activity assay (Ki67/αActinin) in juvenile rat cardiomyocytes; format: cell-based; conditions: c = 10 µM, 4 days, relative to DMSO-treated cells (100), mean of N = 6
Procedure: One day after seeding, the cells were treated with test compounds of interest. Treatments were applied with an ECHO 520 acoustic dispenser (Labcyte) and medium was added to the wells. Four days after treatment, the cells were fixed with 4% formaldehyde (Roth) and immunostained in 0.2% Triton-X100 (Roth) in PBS (Gibco) supplemented with 5% FBS. […] Samples were then imaged and analysed on an ImageXpress XL automated microscope (Molecular Devices). Data are depicted as means ± SEM.

[5] = tested on: rat heart cells; experiment: Cell toxicity assessment on rat heart cells in culture; conditions: c(peptide) = 10 µM
Procedure: whole heart cells monitored by fluorescence microscopy after 90 minutes treatments (scale bar: 25 µm), number of […]
4E as well as control compounds (SB203580, CHIR99021) on rat heart cells in culture (c(peptide) = 10 µM). Number of independent biological replicates: n = 6, error bars = SEM. […]
cytometry analysis of live cells after 90 min incubation at 5 µM: Representative histogram plot, (-) DMSO control). Source data are provided as a Source Data file.
(1 picture or pasted object on this page, not shown here)

| Kd [1] [µM] | Kd [3] [µM] | Compound | further results |
| --- | --- | --- | --- |
| > 100 | > 100 | CC[C@H](C)[C@@H]1NC(=O)[C@H](CCC(N)=O)NC(=O)[C@H](CC(C)C)NC(=O)[C@H](Cc2c[nH]c3ccccc23)NC(=O)[C@H]([C@@H](C)O)NC(=O)[C@H](CC(=O)O)NC(=O)CNC(=O)[C@H](C)NC(=O)[C@H](C)NC(=O)[C@H](CCCCN)NC(=O)[C@H](C)NC(=O)[C@H](Cc2ccccc2)NC(=O)[C@H](Cc2c[nH]cn2)NC(=O)[C@H](CC(=O)O)NC(=O)[C@@H](NC(=O)[C@@H](NC(=O)[C@H](CO)NC(C)=O)C(C)C)CCC(=O)NCCCC[C@@H](C(=O)N[C@@H](C)C(=O)N[C@@H](C)C(N)=O)NC1=O [compound 20] (Ac-SVEDHFAKAAGDTWLQIKAA-NH2; lactam 3-18) | IC50 [2]: > 100 µM |
| > 100 | > 100 | CC[C@H](C)[C@H](NC(=O)[C@H](CO)NC(=O)[C@@H](NC(=O)[C@H](CO)NC(=O)[C@H](CC(N)=O)NC(=O)[C@@H]1CCCN1C(=O)[C@H](C)NC(=O)[C@@H]1CCCN1C(=O)[C@H](CCC(=O)O)NC(=O)[C@@H]1CCCN1C(=O)[C@H](CCC(=O)O)NC(=O)[C@H](CCCCN)NC(C)=O)C(C)C)C(=O)N[C@H](C(=O)NCC(N)=O)[C@@H](C)O [compound 3] (Ac-KEPEPAPNSVSITG-NH2) |  |
|  | 1.7 ± 0.01 | CC[C@H](C)[C@@H]1NC(=O)[C@H](CCC(N)=O)NC(=O)[C@H](CC(C)C)NC(=O)[C@H](Cc2c[nH]c3ccccc23)NC(=O)[C@H]([C@@H](C)O)NC(=O)[C@H](CC(=O)O)NC(=O)CNC(=O)[C@H](CC(C)C)NC(=O)[C@H](C)NC(=O)[C@H](C)NC(=O)[C@H](C)NC(=O)[C@H](Cc2ccccc2)NC(=O)[C@H](Cc2c[nH]cn2)NC(=O)[C@H](CC(=O)O)NC(=O)[C@@H](NC(=O)[C@@H](NC(=O)[C@H](CO)NC(C)=O)C(C)C)CCC(=O)NCCCC[C@@H](C(=O)N[C@@H](C)C(=O)N[C@@H](C)C(N)=O)NC1=O [compound 19] (Ac-SVEDHFAAALGDTWLQIKAA-NH2; lactam 3-18) |  |
| 15 ± 0.85 |  | CC[C@H](C)[C@@H]1NC(=O)[C@H](CCC(N)=O)NC(=O)[C@H](CC(C)C)NC(=O)[C@H](C)NC(=O)[C@H]([C@@H](C)O)NC(=O)[C@H](CC(=O)O)NC(=O)CNC(=O)[C@H](CC(C)C)NC(=O)[C@H](C)NC(=O)[C@H](CCCCN)NC(=O)[C@H](C)NC(=O)[C@H](Cc2ccccc2)NC(=O)[C@H](Cc2c[nH]cn2)NC(=O)[C@H](CC(=O)O)NC(=O)[C@@H](NC(=O)[C@@H](NC(=O)[C@H](CO)NC(C)=O)C(C)C)CCC(=O)NCCCC[C@@H](C(=O)N[C@@H](C)C(=O)N[C@@H](C)C(N)=O)NC1=O [compound 23] (Ac-SVEDHFAKALGDTALQIKAA-NH2; lactam 3-18) | IC50 [2]: > 50 µM |
|  |  | C[S+]([O-])c1ccc(-c2nc(-c3ccncc3)c(-c3ccc(F)cc3)[nH]2)cc1 (centres unmarked) [SB203580, reference compound] | Cell cycle activity, MEAN [4]: 122.95 |
| > 100 | > 100 | CC[C@H](C)[C@H](NC(=O)[C@H](CCC(N)=O)NC(=O)[C@H](CC(C)C)NC(=O)[C@H](Cc1c[nH]c2ccccc12)NC(=O)[C@@H](NC(=O)[C@H](CC(=O)O)NC(C)=O)[C@@H](C)O)C(=O)N[C@@H](CCCCN)C(=O)N[C@@H](C)C(=O)N[C@@H](C)C(N)=O [compound 6] (Ac-DTWLQIKAA-NH2) |  |
| 113 ± 3.5 |  | CC[C@H](C)[C@@H]1NC(=O)[C@H](CCC(N)=O)NC(=O)[C@H](CC(C)C)NC(=O)[C@H](Cc2c[nH]c3ccccc23)NC(=O)[C@H](C)NC(=O)[C@H](CC(=O)O)NC(=O)CNC(=O)[C@H](CC(C)C)NC(=O)[C@H](C)NC(=O)[C@H](CCCCN)NC(=O)[C@H](C)NC(=O)[C@H](Cc2ccccc2)NC(=O)[C@H](Cc2c[nH]cn2)NC(=O)[C@H](CC(=O)O)NC(=O)[C@@H](NC(=O)[C@@H](NC(=O)[C@H](CO)NC(C)=O)C(C)C)CCC(=O)NCCCC[C@@H](C(=O)N[C@@H](C)C(=O)N[C@@H](C)C(N)=O)NC1=O [compound 22] (Ac-SVEDHFAKALGDAWLQIKAA-NH2; lactam 3-18) | IC50 [2]: > 100 µM |
| 21.8 | 19.4 | CC(=O)N[C@@H](CC(=O)O)C(=O)N1CCC[C@H]1C(=O)N[C@H](C(=O)N[C@H](C(=O)N[C@@H](CCC(=O)O)C(=O)N[C@@H](CCC(=O)O)C(=O)N[C@@H](Cc1c[nH]cn1)C(=O)N[C@@H](Cc1ccccc1)C(=O)N[C@@H](CCCNC(=N)N)C(=O)N[C@@H](CCCNC(=N)N)C(=O)N[C@@H](CO)C(=O)N[C@@H](CC(C)C)C(=O)NCC(=O)N[C@@H](CCCCN)C(=O)N[C@@H](CC(N)=O)C(=O)N[C@@H](Cc1ccc(O)cc1)C(N)=O)C(C)C)C(C)C [compound 2] (Ac-DPVVEEHFRRSLGKNY-NH2) |  |
|  | 1.5 | CC[C@H](C)[C@@H]1NC(=O)[C@H](CCC(N)=O)NC(=O)[C@H](CC(C)C)NC(=O)[C@H](Cc2c[nH]c3ccccc23)NC(=O)[C@H]([C@@H](C)O)NC(=O)[C@H](CC(=O)O)NC(=O)CNC(=O)[C@H](CC(C)C)NC(=O)[C@H](C)NC(=O)[C@H](CCCCN)NC(=O)[C@H](C)NC(=O)[C@H](Cc2ccccc2)NC(=O)[C@H](Cc2c[nH]cn2)NC(=O)[C@H](CC(=O)O)NC(=O)[C@@H](NC(=O)[C@@H](NC(=O)[C@H](CO)NC(C)=O)C(C)C)CCC(=O)NCCC[C@@H](C(=O)N[C@@H](C)C(=O)N[C@@H](C)C(N)=O)NC1=O [4D] (Ac-SVEDHFAKALGDTWLQI[Orn]AA-NH2; lactam 3-18) |  |
|  |  | Cc1c[nH]c(-c2cnc(NCCNc3ccc(C#N)cn3)nc2-c2ccc(Cl)cc2Cl)n1 [CHIR99021, reference compound] | Cell cycle activity, MEAN [4]: 152.398; Total cell number (% DMSO control) ([5]; raw data replicate 1): 164.318 % DMSO control; Total cell number (% DMSO control) ([5]; raw data replicate 2): 154.314 % DMSO control; Total cell number (% DMSO control) ([5]; raw data replicate 3): 186.382 % DMSO control; Total cell number (% DMSO control) ([5]; raw data replicate 4): 116.435 % DMSO control; Total cell number (% DMSO control) ([5]; raw data replicate 5): 128.897 % DMSO control; Total cell number (% DMSO control) ([5]; raw data replicate 6): 164.042 % DMSO control |
| 12 | 17 | CC[C@H](C)[C@H](NC(=O)[C@H](CCC(N)=O)NC(=O)[C@H](CC(C)C)NC(=O)[C@H](Cc1c[nH]c2ccccc12)NC(=O)[C@@H](NC(=O)[C@H](CC(=O)O)NC(=O)CNC(=O)[C@H](CC(C)C)NC(=O)[C@H](C)NC(=O)[C@H](CCCCN)NC(=O)[C@H](C)NC(=O)[C@H](Cc1ccccc1)NC(=O)[C@H](Cc1c[nH]cn1)NC(=O)[C@H](CC(=O)O)NC(=O)[C@H](CC(=O)O)NC(=O)[C@@H](NC(=O)[C@H](CO)NC(C)=O)C(C)C)[C@@H](C)O)C(=O)N[C@@H](C)C(=O)N[C@@H](C)C(=O)N[C@@H](C)C(N)=O [compound 13] (Ac-SVDDHFAKALGDTWLQIAAA-NH2) |  |
|  | 1.5 ± 0.02 | CC[C@H](C)[C@@H]1NC(=O)[C@H](CCC(N)=O)NC(=O)[C@H](CC(C)C)NC(=O)[C@H](Cc2c[nH]c3ccccc23)NC(=O)[C@H]([C@@H](C)O)NC(=O)[C@H](CC(=O)O)NC(=O)CNC(=O)[C@H](CC(C)C)NC(=O)[C@H](C)NC(=O)[C@H](CCCCN)NC(=O)[C@H](C)NC(=O)[C@H](Cc2ccccc2)NC(=O)[C@H](Cc2c[nH]cn2)NC(=O)[C@H](CC(=O)O)NC(=O)[C@@H](NC(=O)[C@@H](NC(=O)[C@H](C)NC(C)=O)C(C)C)CCC(=O)NCCCC[C@@H](C(=O)N[C@@H](C)C(=O)N[C@@H](C)C(N)=O)NC1=O [compound 14] (Ac-AVEDHFAKALGDTWLQIKAA-NH2; lactam 3-18) |  |

— PMC7591920, “A protein tertiary structure mimetic modulator of the Hippo signalling pathway” (Nature Communications, 2020)
